Laboratory results: US12558371B2, “Chondroitin sulfate polysaccharide, and semi-synthetic preparation method therefor and use thereof” (Institute of Materia Medica, Chinese Academy of Medical …, priority 2019, dated 2026)
Marks after values point to notes of the source that are not given here.

How the values were obtained:
[1] = test system: mouse ear acute swelling inflammation models caused by croton oil; assay: Mouse ear acute swelling inflammation model caused by croton oil; type: in vivo, Balb/c mice; conditions: 5 mg/kg, once a day for 3 d
Experimental: Anti-inflammatory effects of the glycans 1 to 5 prepared in Examples 1 to 5 were evaluated, specifically as follows:
(1) Test method: experiments for evaluating pharmacodynamic activities of CS compounds in mouse ear acute swelling inflammation models caused by croton oil
Animals: Balb/c mice, male (20 g to 22 g); 8 mice per group.
Groups: model group, positive drug (indometacin) group (5 mg/kg), natural extract (CS-E) group (200 mg/kg), and glycan groups (200 mg/kg, 100 mg/kg, and 50 mg/kg). Each of the positive drug and the compounds of CS series was formulated with sodium carboxymethylcellulose at a concentration of 0.5% by mass, and stored in a refrigerator at 4° C.
Administration and test: the mice were administered for 3 d, once a day. After the last administration, an induction rate on mouse ear swelling (%) and an inhibition rate on the ear swelling degree (%) by the compounds were calculated.
Statistical analysis: the experimental results were all expressed as “mean±standard deviation”. A statistical difference between two groups was calculated and analyzed by the t-test method. * represents p<0.05, and ** represents p<0.01.

[2] = test system: DSS-induced UC model mice; assay: DSS-induced acute ulcerative colitis (UC) mouse model; type: in vivo, C57BL/6J mice
Experimental: Pharmacodynamics of the Glycan 3 (referred to as SEMI5) prepared in Example 3 was evaluated on anti-DSS models, specifically as follows:
C57BL/6J mice, male (18 g to 20 g), 6 mice per group, which were purchased from Beijing Huafukang Biotechnology Co., Ltd., with a license No.: SCXK (Beijing) 2014-0004.
(1) Normal control group (control group): intragastrically administered with sodium carboxymethylcellulose at a concentration of 0.5% by mass.
(2) UC (Ulcerative colitis) model group (model group): intragastrically administered with sodium carboxymethylcellulose at a concentration of 0.5% by mass.
(3) SASP (a positive drug salazosulfapyridine) group: Shanghai Xinyi Pharmaceutical Co., Ltd. (Batch No.: 036151102), 500 mg/kg, which was formulated with sodium carboxymethylcellulose at a concentration of 0.5% by mass and stored at 4° C., and intragastrically administered once a day.
(4) SEMI5-50 group: 50 mg/kg, which was formulated with distilled water and stored at 4° C., and intragastrically administered once a day.
(5) SEMI5-150 group: 150 mg/kg, which was formulated with distilled water and stored at 4° C., and intragastrically administered once a day.
3. Experimental method After being adaptively raised for one week in an SPF animal house (experimental animal use license No.: SYXK (Beijing) 2014-0023), the C57BL/6J mice were randomly divided into 5 groups according to the above protocols. Mice in the UC model group and administration groups were modeled with DSS (MP, CA9011-18-1, US) every day according to the modeling method for ulcerative colitis that had been established in the laboratory. The normal control group (control group) and UC model group (model group) were intragastrically administered with sodium carboxymethylcellulose at a concentration of 0.5% by mass once a day. The SASP group, SEMI5-50 group, and SEMI5-150 group were intragastrically administered once a day according to the experimental protocols in the section of “Experimental groups”. 7 d after modeling, typical UC pathological changes such as obvious listlessness, activity reduction, weight loss, watery stool, and hematochezia occurred in animals of the UC model group. The experiments were terminated, and animals in each group were sacrificed. Each of evaluation indexes related with colitis was detected (as shown in the subsequent section of experimental results). The anti-UC pharmacodynamic activity of each of the compounds was evaluated comprehensively.
The animals were evaluated by the DAI scores in terms of indexes such as animal body weight loss, stool property, hematochezia. The lower the DAI score was, the closer was the condition of the animal to a normal physiological status.

[3] = 500 mg/kg intragastrically once a day, 7 d

SMILES | Inhibition rate (%) ([1]; Table 2) | Swelling rate (%) Mean ± SD ([1]; Table 2) | Inhibition rate (%) ([1]; Table 3) | Swelling rate (%) Mean ± SD ([1]; Table 3) | Inhibition rate (%) ([1]; Table 4) | Swelling rate (%) Mean ± SD ([1]; Table 4) | Effect on body weight reduction vs. UC model group (in words) ([2]; 500 mg/kg) | Effect on colon contracture vs. UC model group (in words) ([2]; 500 mg/kg) | Effect on disease complex index DAI scores vs. UC model group (in words) ([2]; 500 mg/kg) | Overall anti-UC activity (conclusion in words) ([2]; 500 mg/kg) | Colon contracture percentage (%) [2, 3] [%] | Colon length (cm) [2, 3] [cm] | DAI complex index inhibition rate (%) [2, 3] | Disease activity index DAI [2, 3] | Body weight (g) X ± SD, End ([2]; 500 mg/kg intragastrically once a day, end, 7 d after modeling) [g] | Body weight (g) X ± SD, Start ([2]; 500 mg/kg intragastrically once a day, start of experiment) [g]
COc1ccc2c(c1)c(CC(=O)O)c(C)n2C(=O)c1ccc(Cl)cc1 [Indometacin, indometacin] | 26.01 | 70.25 ± 20.97* % | 27.70 | 74.43 ± 20.97* % | 41.06 | 45.34 ± 6.92* % |  |  |  |  |  |  |  |  |  | 
O=C(O)c1cc(/N=N/c2ccc(S(=O)(=O)Nc3ccccn3)cc2)ccc1O [SASP, salazosulfapyridine] |  |  |  |  |  |  | failed to effectively alleviate the body weight reduction | failed to effectively alleviate the colon contracture | improved to some extent | exhibited a certain anti-UC activity | 31.39 | 5.29 ± 0.61 | 14.68* % | 3.10 ± 0.59 | 18.76 ± 1.09 | 21.97 ± 0.71
